US20090181963A1, “3H-[1,2,3]TRIAZOLO[4,5-D]PYRIMIDINE COMPOUNDS, THEIR USE AS mTOR KINASE AND PI3 KINASE INHIBITORS, AND THEIR [sequence]” (Wyeth, priority 2008, published 2009)

How the values were obtained:
PI3 Kinase α = PI3 Kinase α (Homo sapiens, UniProt P42336); assay: Fluorescence polarization assay for PI3K (PI3 Kinase α); format: biochemical; conditions: diC8-PI(4,5)P2 substrate, 25 μM ATP, one hour at 25° C.
PI3 Kinase γ = PI3 Kinase γ (Homo sapiens, UniProt P48736); assay: Fluorescence polarization assay for PI3K (PI3 Kinase γ); format: biochemical; conditions: diC8-PI(4,5)P2 substrate, 25 μM ATP, one hour at 25° C.
Sequence of PI3 Kinase γ (P48736 whole entry): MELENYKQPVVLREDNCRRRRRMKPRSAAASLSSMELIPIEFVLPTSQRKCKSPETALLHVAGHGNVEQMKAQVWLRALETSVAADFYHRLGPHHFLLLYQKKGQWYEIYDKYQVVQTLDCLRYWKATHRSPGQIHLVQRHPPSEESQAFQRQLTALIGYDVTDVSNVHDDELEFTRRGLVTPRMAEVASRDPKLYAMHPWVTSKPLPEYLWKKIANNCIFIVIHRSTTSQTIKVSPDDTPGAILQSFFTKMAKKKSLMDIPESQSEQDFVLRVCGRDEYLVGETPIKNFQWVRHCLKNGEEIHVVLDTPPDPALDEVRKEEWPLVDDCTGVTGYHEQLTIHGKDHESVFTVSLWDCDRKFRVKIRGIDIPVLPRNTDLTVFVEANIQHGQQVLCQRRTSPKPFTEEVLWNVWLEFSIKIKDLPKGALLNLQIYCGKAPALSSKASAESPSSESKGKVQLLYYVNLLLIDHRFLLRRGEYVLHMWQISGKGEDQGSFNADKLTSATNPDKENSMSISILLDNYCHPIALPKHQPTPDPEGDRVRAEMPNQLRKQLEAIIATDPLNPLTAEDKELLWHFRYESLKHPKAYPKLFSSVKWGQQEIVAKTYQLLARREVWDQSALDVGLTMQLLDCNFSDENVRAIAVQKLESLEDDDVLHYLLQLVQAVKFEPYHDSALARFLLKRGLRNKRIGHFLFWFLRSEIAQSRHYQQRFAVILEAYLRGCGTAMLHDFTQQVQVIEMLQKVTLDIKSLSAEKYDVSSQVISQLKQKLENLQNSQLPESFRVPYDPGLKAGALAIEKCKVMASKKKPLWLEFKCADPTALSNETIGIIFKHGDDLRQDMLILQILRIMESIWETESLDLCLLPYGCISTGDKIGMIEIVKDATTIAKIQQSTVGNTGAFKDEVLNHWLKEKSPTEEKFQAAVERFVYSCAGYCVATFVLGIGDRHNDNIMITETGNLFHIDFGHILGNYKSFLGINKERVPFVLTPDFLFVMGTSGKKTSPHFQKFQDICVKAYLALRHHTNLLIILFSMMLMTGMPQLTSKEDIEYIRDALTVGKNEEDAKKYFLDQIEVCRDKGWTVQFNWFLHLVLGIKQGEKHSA

Sequence of PI3 Kinase α (P42336 whole entry): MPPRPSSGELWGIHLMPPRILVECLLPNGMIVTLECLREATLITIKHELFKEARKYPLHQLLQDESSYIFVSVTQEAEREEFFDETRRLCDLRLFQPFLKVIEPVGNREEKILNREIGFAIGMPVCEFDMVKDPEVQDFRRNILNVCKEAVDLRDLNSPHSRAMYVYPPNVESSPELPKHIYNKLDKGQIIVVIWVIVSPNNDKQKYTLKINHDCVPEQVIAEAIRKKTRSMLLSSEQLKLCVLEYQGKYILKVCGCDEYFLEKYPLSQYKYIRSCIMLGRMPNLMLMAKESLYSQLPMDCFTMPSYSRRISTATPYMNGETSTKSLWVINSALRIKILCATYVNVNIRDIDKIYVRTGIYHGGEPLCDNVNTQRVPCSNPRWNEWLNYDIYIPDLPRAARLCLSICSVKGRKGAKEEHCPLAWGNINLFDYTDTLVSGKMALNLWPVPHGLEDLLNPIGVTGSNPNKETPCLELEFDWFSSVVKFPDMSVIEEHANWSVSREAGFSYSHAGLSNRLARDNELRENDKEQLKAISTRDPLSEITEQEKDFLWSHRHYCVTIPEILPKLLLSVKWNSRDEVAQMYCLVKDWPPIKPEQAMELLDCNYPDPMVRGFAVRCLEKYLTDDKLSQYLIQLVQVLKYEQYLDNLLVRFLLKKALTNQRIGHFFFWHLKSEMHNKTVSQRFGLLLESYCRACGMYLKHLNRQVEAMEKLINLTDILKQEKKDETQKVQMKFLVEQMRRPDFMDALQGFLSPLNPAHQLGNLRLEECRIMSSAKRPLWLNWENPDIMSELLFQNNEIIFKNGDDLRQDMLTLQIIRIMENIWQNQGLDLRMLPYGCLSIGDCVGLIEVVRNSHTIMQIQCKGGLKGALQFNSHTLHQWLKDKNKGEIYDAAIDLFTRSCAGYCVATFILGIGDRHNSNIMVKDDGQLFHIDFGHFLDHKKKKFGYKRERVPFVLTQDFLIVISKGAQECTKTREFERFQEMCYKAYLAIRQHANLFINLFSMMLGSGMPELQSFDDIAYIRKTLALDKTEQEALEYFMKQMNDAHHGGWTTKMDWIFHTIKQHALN
Sequence of PI3 Kinase α (P27986 whole entry partner): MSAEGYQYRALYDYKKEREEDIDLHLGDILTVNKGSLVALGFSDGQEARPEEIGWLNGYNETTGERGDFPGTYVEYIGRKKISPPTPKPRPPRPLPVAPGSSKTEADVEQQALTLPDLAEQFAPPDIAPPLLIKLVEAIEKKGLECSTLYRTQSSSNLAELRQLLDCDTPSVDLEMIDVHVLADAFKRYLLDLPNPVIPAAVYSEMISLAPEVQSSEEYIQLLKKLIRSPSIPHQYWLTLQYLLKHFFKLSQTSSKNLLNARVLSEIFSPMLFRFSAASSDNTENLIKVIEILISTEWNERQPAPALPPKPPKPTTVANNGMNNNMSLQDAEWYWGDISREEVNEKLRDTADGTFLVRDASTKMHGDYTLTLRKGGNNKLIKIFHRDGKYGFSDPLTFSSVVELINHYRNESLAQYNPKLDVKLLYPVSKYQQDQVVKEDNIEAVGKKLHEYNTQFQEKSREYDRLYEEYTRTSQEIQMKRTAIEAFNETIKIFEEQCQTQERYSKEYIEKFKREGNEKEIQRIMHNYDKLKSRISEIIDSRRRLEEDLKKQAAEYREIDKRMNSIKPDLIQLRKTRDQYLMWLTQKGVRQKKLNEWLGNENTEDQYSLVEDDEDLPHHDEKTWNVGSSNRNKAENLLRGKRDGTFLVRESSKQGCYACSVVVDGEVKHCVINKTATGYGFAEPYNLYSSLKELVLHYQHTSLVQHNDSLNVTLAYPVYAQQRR

| SMILES | IC50 (PI3 Kinase α) | IC50 (PI3 Kinase γ) |
| --- | --- | --- |
| O=C(Nc1ccccc1)Nc1ccc(-c2nc(N3CCOCC3)c3nnn(-c4cccc(C(=O)O)c4)c3n2)cc1 [Example 123, 3-(7-morpholin-4-yl-5-{4-[(phenylcarbamoyl)amino]phenyl}-3H-[1,2,3]triazolo[4,5-d]pyrimidin-3-yl)benzoic acid] | 0.004 µM | 0.0085 µM |
| O=C(c1ccc(Cn2nnc3c(N4CCOCC4)nc(-c4cccc(O)c4)nc32)cc1)N1CCN(c2ccccc2)CC1 [Example 229, 3-(7-morpholin-4-yl-3-{4-[(4-phenylpiperazin-1-yl)carbonyl]benzyl}-3H-[1,2,3]triazolo[4,5-d]pyrimidin-5-yl)phenol] | 0.286 µM | 10.2 µM |
| CCNC(=O)c1ccc(Cn2nnc3c(N4CCOCC4)nc(-c4cccc(O)c4)nc32)cc1 [Example 219, N-ethyl-4-{[5-(3-hydroxyphenyl)-7-morpholin-4-yl-3H-[1,2,3]triazolo[4,5-d]pyrimidin-3-yl]methyl}benzamide] | 0.26 µM | 1.84 µM |
| CNCCCCn1nnc2c(N3CCOCC3)nc(-c3cccc(O)c3)nc21 [Example 203, 3-{3-[4-(Methylamino)butyl]-7-morpholin-4-yl-3H-[1,2,3]triazolo[4,5-d]pyrimidin-5-yl}phenol] | 0.1 µM | 0.618 µM |
| CCn1nnc2c(N3CCOC[C@@H]3C)nc(-c3ccc(NC(=O)Nc4cccs4)cc3)nc21 [Example 69, (S)-1-(4-(3-ethyl-7-(3-methylmorpholino)-3H-[1,2,3]triazolo[4,5-d]pyrimidin-5-yl)phenyl)-3-(thiophen-2-yl)urea] | 0.0085 µM | 0.0975 µM |
| O=C(Nc1ccc(CCO)cc1)Nc1ccc(-c2nc(N3CCOCC3)c3nnn(CC(F)(F)F)c3n2)cc1 [Example 138, 1-[4-(2-hydroxyethyl)phenyl]-3-{4-[7-morpholin-4-yl-3-(2,2,2-trifluoroethyl)-3H-[1,2,3]triazolo[4,5-d]pyrimidin-5-yl]phenyl}urea] | 0.003 µM | 0.0125 µM |
| O=C(c1ccccc1)N1CCN(CCn2nnc3c(N4CCOCC4)nc(-c4cccc(O)c4)nc32)CC1 [Example 99, 3-{3-[2-(4-benzoylpiperazin-1-yl)ethyl]-7-morpholin-4-yl-3H-[1,2,3]triazolo[4,5-d]pyrimidin-5-yl}phenol] | 0.924 µM | 5.75 µM |
| CC(=O)NCCn1nnc2c(N3CCOCC3)nc(-c3cccc(CO)c3)nc21 [Example 8, N-(2-{5-[3-(hydroxymethyl)phenyl]-7-morpholin-4-yl-3H-[1,2,3]triazolo[4,5-d]pyrimidin-3-yl}ethyl)acetamide] | 0.086 µM | 0.196 µM |
| CC(C)n1nnc2c(N3CCOCC3)nc(-c3ccc(NC(=O)Nc4cnoc4)cc3)nc21 [Example 94, 1-[4-(3-isopropyl-7-morpholin-4-yl-3H-[1,2,3]triazolo[4,5-d]pyrimidin-5-yl)-phenyl]-3-isoxazol-4-yl-urea] | 0.0345 µM | 0.132 µM |

The remaining molecules from weak to strong by IC50 (PI3 Kinase α), led by results:

| IC50 (PI3 Kinase α) | IC50 (PI3 Kinase γ) | SMILES |
| --- | --- | --- |
| 1.38 µM | 2.96 µM | CC(=O)N1CCN(CCn2nnc3c(N4CCOCC4)nc(-c4cccc(O)c4)nc32)CC1 [Example 105, 3-{3-[2-(4-acetylpiperazin-1-yl)ethyl]-7-morpholin-4-yl-3H-[1,2,3]triazolo[4,5-d]pyrimidin-5-yl}phenol] |
| 0.998 µM | 8.83 µM | Oc1cncc(-c2nc(N3CCOCC3)c3nnn(C4CCN(CN5CCN(Cc6ccccc6)CC5)CC4)c3n2)c1 [Example 28, 5-(3-{1-[(4-benzylpiperazin-1-yl)methyl]piperidin-4-yl}-7-morpholin-4-yl-3H-[1,2,3]triazolo[4,5-d]pyrimidin-5-yl)pyridin-3-ol] |
| 0.765 µM | 9.59 µM | COC(=O)c1ccc(Cn2nnc3c(N4CCOCC4)nc(-c4cccc(CO)c4)nc32)cc1 [Example 243, methyl 4-({5-[3-(hydroxymethyl)phenyl]-7-morpholin-4-yl-3H-[1,2,3]triazolo[4,5-d]pyrimidin-3-yl}methyl)benzoate] |
| 0.0735 µM | 0.157 µM | CCn1nnc2c(N3CCOCC3)nc(-c3ccc(NC(=O)Nc4nccs4)cc3)nc21 [Example 37, 1-[4-(3-ethyl-7-morpholin-4-yl-3H-[1,2,3]triazolo[4,5-d]pyrimidin-5-yl)phenyl]-3-(1,3-thiazol-2-yl)urea] |
| 0.069 µM | 0.133 µM | Oc1cncc(-c2nc(N3CCOCC3)c3nnn(C4CCN(Cc5ccccc5)CC4)c3n2)c1 [Example 3, 5-[3-(1-benzylpiperidin-4-yl)-7-morpholin-4-yl-3H-[1,2,3]triazolo[4,5-d]pyrimidin-5-yl]pyridin-3-ol] |
| 0.06 µM | 2.3 µM | O=C(NCCc1cnc[nH]1)c1ccc(Cn2nnc3c(N4CCOCC4)nc(-c4cccc(O)c4)nc32)cc1 [Example 231, 4-{[5-(3-hydroxyphenyl)-7-morpholin-4-yl-3H-[1,2,3]triazolo[4,5-d]pyrimidin-3-yl]methyl}-N-[2-(1H-imidazol-5-yl)ethyl]benzamide] |
| 0.054 µM | 0.595 µM | Oc1cccc(-c2nc(N3CCOCC3)c3nnn(CCN4CCNCC4)c3n2)c1 [Example 98, 3-[7-morpholin-4-yl-3-(2-piperazin-1-ylethyl)-3H-[1,2,3]triazolo[4,5-d]pyrimidin-5-yl]phenol] |
| 0.0215 µM | 0.223 µM | CC(C)(C)OC(=O)N1CCC(n2nnc3c(N4CCOCC4)nc(-c4ccc(NC(=O)Nc5cccnc5)cc4)nc32)CC1 [Example 150, tert-butyl 4-(7-morpholin-4-yl-5-{4-[(pyridin-3-ylcarbamoyl)amino]phenyl}-3H-[1,2,3]triazolo[4,5-d]pyrimidin-3-yl)piperidine-1-carboxylate] |
| 0.019 µM | 0.347 µM | O=C(Nc1ccccc1)Nc1ccc(-c2nc(N3CCOCC3)c3nnn(CC4CN(C(=O)c5ccccc5)C4)c3n2)cc1 [Example 190, 1-(4-{3-[(1-benzoylazetidin-3-yl)methyl]-7-morpholin-4-yl-3H-[1,2,3]triazolo[4,5-d]pyrimidin-5-yl}phenyl)-3-phenylurea] |
| 0.0155 µM | 0.0925 µM | CCn1nnc2c(N3CCOC[C@@H]3C)nc(-c3ccc(NC(=O)Nc4ccc(OC)cc4)cc3)nc21 [Example 73, (S)-1-(4-(3-ethyl-7-(3-methylmorpholino)-3H-[1,2,3]triazolo[4,5-d]pyrimidin-5-yl)phenyl)-3-(4-methoxyphenyl)urea] |
| 0.013 µM | 0.28 µM | CN(C)CCCOc1ccc(CN2CCC(n3nnc4c(N5CCOCC5)nc(-c5cccc(O)c5)nc43)CC2)cc1 [Example 146, 3-[3-(1-{4-[3-(dimethylamino)propoxy]benzyl}piperidin-4-yl)-7-morpholin-4-yl-3H-[1,2,3]triazolo[4,5-d]pyrimidin-5-yl]phenol] |
| 0.0095 µM | 0.097 µM | CCn1nnc2c(N3CCOC[C@@H]3C)nc(-c3ccc(NC(=O)Nc4ccc(F)cc4)cc3)nc21 [Example 74, (S)-1-(4-(3-ethyl-7-(3-methylmorpholino)-3H-[1,2,3]triazolo[4,5-d]pyrimidin-5-yl)phenyl)-3-(4-fluorophenyl)urea] |
| 0.004 µM | 0.02 µM | O=C(Nc1ccc(-c2nc(N3CCOCC3)c3nnn(CC(F)(F)F)c3n2)cc1)Nc1ccsc1 [Example 142, 1-{4-[7-morpholin-4-yl-3-(2,2,2-trifluoroethyl)-3H-[1,2,3]triazolo[4,5-d]pyrimidin-5-yl]phenyl}-3-(3-thienyl)urea] |
